Experimental data: ChEMBL document CHEMBL1201862, “PubChem BioAssay data set” (2004)
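How tested: cells in 96-well plates exposed to compound for 48 hours at five concentrations. GI50: concentration for 50% inhibition of growth.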 The source made the active and inactive calls. Cut-off read from the data, not from the text of the source: active = GI50 up to about 1.1 µM and inactive = higher.

What was measured:
Experiment in all cases: DTP human tumour cell line panel, 48 h
SK-OV-3 = system: SK-OV-3
COLO 205 = system: COLO 205
MCF7 = system: MCF7
NCI-H23 = system: NCI-H23
NCI-H226 = system: NCI-H226
SN12C = system: SN12C
MDA-MB-231 = system: MDA-MB-231
HCT-116 = system: HCT-116
RPMI-8226 = system: RPMI-8226
NCI/ADR-RES = system: NCI/ADR-RES
NCI-H460 = system: NCI-H460
EKVX = system: EKVX
T47D = system: T47D
OVCAR-5 = system: OVCAR-5
OVCAR-4 = system: OVCAR-4
HOP-62 = system: HOP-62
HOP-92 = system: HOP-92
A498 = system: A498
MDA-MB-435 = system: MDA-MB-435

SMILES	GI50 (SK-OV-3)	GI50 (COLO 205)	GI50 (MCF7)	GI50 (NCI-H23)	GI50 (NCI-H226)	GI50 (SN12C)	GI50 (MDA-MB-231)	GI50 (HCT-116)	GI50 (RPMI-8226)	GI50 (NCI/ADR-RES)	GI50 (NCI-H460)	GI50 (EKVX)	GI50 (T47D)	GI50 (OVCAR-5)	GI50 (OVCAR-4)	GI50 (HOP-62)	GI50 (HOP-92)	GI50 (A498)	GI50 (MDA-MB-435)
CCCCCCCCCCCCCCCC(=O)Nc1ccn(C2CCC(COP(=O)(O)OCC3OC(n4cc(F)c(=O)[nH]c4=O)CC3OC(C)=O)O2)c(=O)n1 (stereo unspecified)	29.2 µM (inactive)	13.1 µM (inactive)	2.28 µM (inactive)	8.18 µM (inactive)	30 µM (inactive)	13.1 µM (inactive)	29.4 µM (inactive)	8.04 µM (inactive)	2.88 µM (inactive)	16.7 µM (inactive)	0.531 µM (active)	28.8 µM (inactive)	18.3 µM (inactive)	34 µM (inactive)	14.1 µM (inactive)	5.06 µM (inactive)	5.62 µM (inactive)	11.3 µM (inactive)	15.5 µM (inactive)
CC(NCCN(C)C)C1CCC2C3CCc4cc(O)ccc4C3CCC12C (stereo unspecified)	3.69 µM (inactive)	1.84 µM (inactive)	2.96 µM (inactive)	4.45 µM (inactive)	17.8 µM (inactive)	2 µM (inactive)	1.97 µM (inactive)	2.66 µM (inactive)	2.34 µM (inactive)	2.86 µM (inactive)	2.2 µM (inactive)	5.19 µM (inactive)	2.34 µM (inactive)	5.42 µM (inactive)	3.02 µM (inactive)	3.24 µM (inactive)	2.81 µM (inactive)	4.01 µM (inactive)	2.05 µM (inactive)
O=C(O)CC(NC(=O)/C(=C/c1ccccc1)NC(=O)c1ccccc1)C(=O)O (stereo unspecified)	> 100 µM (inactive)	> 100 µM (inactive)	> 100 µM (inactive)	> 100 µM (inactive)	> 100 µM (inactive)	> 100 µM (inactive)	> 100 µM (inactive)	> 100 µM (inactive)	> 100 µM (inactive)	> 100 µM (inactive)	> 100 µM (inactive)	> 100 µM (inactive)	> 100 µM (inactive)	> 100 µM (inactive)	> 100 µM (inactive)	> 100 µM (inactive)	> 100 µM (inactive)	> 100 µM (inactive)	> 100 µM (inactive)
C#C[C@]1(O)CC[C@H]2[C@@H]3CCC4=C/C(=N/OC(=O)c5cccc6c(=O)c7ccccc7[nH]c56)CCC4[C@H]3CC[C@@]21CC (stereo partly specified)	63.1 µM (inactive)	37.2 µM (inactive)	25.1 µM (inactive)	26.4 µM (inactive)	> 48.9 µM (inactive)	39.6 µM (inactive)	54.8 µM (inactive)	25 µM (inactive)	1.37 µM (inactive)	15.8 µM (inactive)	14.3 µM (inactive)	22.2 µM (inactive)	24.8 µM (inactive)	> 100 µM (inactive)	49.3 µM (inactive)	49.1 µM (inactive)	42.6 µM (inactive)	10.1 µM (inactive)	26.5 µM (inactive)
Cn1c(=O)cc(NNc2ccccc2)[nH]c1=O	> 100 µM (inactive)	> 100 µM (inactive)	1.78 µM (inactive)	> 100 µM (inactive)	> 100 µM (inactive)	61.5 µM (inactive)	18.7 µM (inactive)	17.8 µM (inactive)	17.1 µM (inactive)	> 100 µM (inactive)	> 100 µM (inactive)	36.1 µM (inactive)	17.6 µM (inactive)	85.5 µM (inactive)	> 100 µM (inactive)	> 100 µM (inactive)	22.1 µM (inactive)	> 100 µM (inactive)	28.2 µM (inactive)
CC1OC(OC2C(O)COC(OC3C(C)OC(OC4C(OC(=O)[C@]56CCC(C)(C)C[C@@H]5C5=CCC7[C@@]8(C)C[C@H](O)[C@H](OC9OC(CO)C(O)C(OC%10OC(CO)C(O)C(O)C%10O)C9O)[C@@](C)(CO)[C@@H]8CC[C@@]7(C)[C@]5(C)CC6)OCC(O)C4O)C(O)C3OC3OCC(O)C(O)C3O)C2O)C(O)C(O)C1O (stereo partly specified)	14.8 µM (inactive)	1.92 µM (inactive)	17.3 µM (inactive)	4.04 µM (inactive)	7.82 µM (inactive)	2 µM (inactive)	3.12 µM (inactive)	11.3 µM (inactive)	13.9 µM (inactive)	10.9 µM (inactive)	17.4 µM (inactive)	7.05 µM (inactive)	3.96 µM (inactive)	7.43 µM (inactive)	11.7 µM (inactive)	6.76 µM (inactive)	12.3 µM (inactive)	2.15 µM (inactive)	2.66 µM (inactive)
COC1C(=O)CCC2(CO2)C1(O)C1(C)OC1CCC(C)C (stereo unspecified)	> 100 µM (inactive)	23.9 µM (inactive)	54.8 µM (inactive)	22.6 µM (inactive)	> 100 µM (inactive)	23.3 µM (inactive)	15.6 µM (inactive)	21.5 µM (inactive)	> 100 µM (inactive)	> 100 µM (inactive)	< 0.01 µM (active)	> 100 µM (inactive)	52.8 µM (inactive)	> 100 µM (inactive)	> 100 µM (inactive)	54.5 µM (inactive)	> 100 µM (inactive)	> 100 µM (inactive)	61.1 µM (inactive)
CC(C)CCNC(=O)c1ccc(CNC(=O)/C=C/c2cccc(Oc3ccccc3)c2)cc1	33.1 µM (inactive)	> 100 µM (inactive)	36.5 µM (inactive)	34.3 µM (inactive)	47.4 µM (inactive)	43.7 µM (inactive)	24.1 µM (inactive)	24.5 µM (inactive)	67.9 µM (inactive)	37.2 µM (inactive)	34.3 µM (inactive)	23.1 µM (inactive)	79.3 µM (inactive)	> 100 µM (inactive)	27.7 µM (inactive)	18.7 µM (inactive)	53.2 µM (inactive)	30.8 µM (inactive)	13.6 µM (inactive)
CC1C(C#N)(C#N)C(C#N)=C(N)C1(C)[N+](=O)[O-] (stereo unspecified)	> 100 µM (inactive)	44.6 µM (inactive)	24.8 µM (inactive)	> 100 µM (inactive)	> 100 µM (inactive)	58.2 µM (inactive)	> 100 µM (inactive)	58.3 µM (inactive)	28.7 µM (inactive)	> 100 µM (inactive)	30.6 µM (inactive)	21.5 µM (inactive)	> 10 µM (inactive)	> 100 µM (inactive)	47.4 µM (inactive)	> 100 µM (inactive)	2.92 µM (inactive)	68.2 µM (inactive)	45.7 µM (inactive)
C[C@]12CC[C@H]3[C@@H](CCC4=CC(=O)CC[C@@]43C)[C@@H]1CC[C@@H]2C(=O)Nc1ccc([N+](=O)[O-])c(C(F)(F)F)c1	12.7 µM (inactive)	18.2 µM (inactive)	16.3 µM (inactive)	> 10 µM (inactive)	21.2 µM (inactive)	23.4 µM (inactive)	17.1 µM (inactive)	17.5 µM (inactive)	56.1 µM (inactive)	13.3 µM (inactive)	17.3 µM (inactive)	13.4 µM (inactive)	15.6 µM (inactive)	> 10 µM (inactive)	15.3 µM (inactive)	29 µM (inactive)	39.8 µM (inactive)	17.6 µM (inactive)	18 µM (inactive)
O=C(O)Cc1cc(Cl)ccc1O	> 100 µM (inactive)	> 100 µM (inactive)	> 100 µM (inactive)	> 100 µM (inactive)	> 100 µM (inactive)	> 100 µM (inactive)	> 100 µM (inactive)	> 100 µM (inactive)	> 100 µM (inactive)	> 100 µM (inactive)	> 100 µM (inactive)	> 100 µM (inactive)	> 100 µM (inactive)	> 100 µM (inactive)	> 100 µM (inactive)	> 100 µM (inactive)	> 100 µM (inactive)	> 100 µM (inactive)	> 100 µM (inactive)
O=C1O[C@H](COC(=O)c2ccccc2)[C@@H](OC(=O)c2ccccc2)C=C1OC(=O)c1ccccc1	> 100 µM (inactive)	19.6 µM (inactive)	28.8 µM (inactive)	18.1 µM (inactive)	21.5 µM (inactive)	18.8 µM (inactive)	17.5 µM (inactive)	17.3 µM (inactive)	29.6 µM (inactive)	18.9 µM (inactive)	16.2 µM (inactive)	17.7 µM (inactive)	23.4 µM (inactive)	21 µM (inactive)	20.9 µM (inactive)	20 µM (inactive)	21.8 µM (inactive)	55.7 µM (inactive)	25 µM (inactive)
C[C@H](CCC(=O)O)[C@H]1CC[C@@]2(C)[C@@H]3C(=O)C[C@H]4C(C)(C)[C@@H](O)CC[C@]4(C)[C@H]3C(=O)C[C@]12C	> 100 µM (inactive)	> 100 µM (inactive)	> 100 µM (inactive)	> 100 µM (inactive)	> 100 µM (inactive)	> 100 µM (inactive)	> 100 µM (inactive)	> 100 µM (inactive)	> 100 µM (inactive)	> 100 µM (inactive)	62.7 µM (inactive)	> 100 µM (inactive)	> 100 µM (inactive)	> 100 µM (inactive)	> 100 µM (inactive)	> 100 µM (inactive)	> 100 µM (inactive)	> 100 µM (inactive)	> 100 µM (inactive)
Cc1cccc2c(N)c3cccc(C(=O)NCC[N+](C)(C)Cc4ccc(S(C)(=O)=O)cc4)c3nc12	33.6 µM (inactive)	47.1 µM (inactive)	11.5 µM (inactive)	21.8 µM (inactive)	98.2 µM (inactive)	2.9 µM (inactive)	> 81.3 µM (inactive)	36.5 µM (inactive)	5.61 µM (inactive)	> 100 µM (inactive)	4.3 µM (inactive)	> 91.2 µM (inactive)	59.7 µM (inactive)	> 95.1 µM (inactive)	41.4 µM (inactive)	27.7 µM (inactive)	70 µM (inactive)	10.8 µM (inactive)	> 100 µM (inactive)
